Measurements published in patent US10183011B2, “Anti-depression compounds” (Board of Regents of the University of Texas System, priority 2009, dated 2019).
“Also recorded” adds a separate entry of the source.

Tests used:
[1] = system: dentate gyrus of NPAS3-deficient mice; assay: NPAS3-deficient mice: neurogenesis, apoptosis, morphology and electrophysiology of the dentate gyrus; assay type: in vivo, mouse (npas3−/−)
Procedure: FIG. 14: Example 45 Compound has pro-neurogenic or neuroprotective efficacy in the dentate gyrus of NPAS3-deficient animals. Six 12 week old npas3^−/− mice were orally administered vehicle or Example 45 Compound (20 mg/kg/d) for 12 days, and also injected daily with BrdU (50 mg/kg). At the end of day 12, mice were sacrificed and tissue was stained for BrdU and doublecortin (DCX).
Apoptosis in NPAS3-deficient animals was inhibited by treatment with Example 45 Compound (20 mg/kg/d, p.o., for 12 days), whereas analogous treatment with vehicle alone had no effect. Images shown are representative of 10-12 sections evaluated per animal, with 3-5 […] male NPAS3-deficient mice per group.
Armed with these genotype- and region-specific deficits in both neuron morphology and electrophysiological activity, whether prolonged administration of Example 45 Compound might favorably repair either deficit in NPAS3-deficient animals was tested. […] Following oral gavage of pregnant female mice, 14 day embryos were recovered, dissected and processed by acetonitrile:water extraction so that Example 45 Compound levels could be measured in the embryonic brain. Daily administration of 20 mg/kg of Example 45 Compound to pregnant females yielded appreciable levels of the compound in the brain tissue of developing embryos. It was similarly observed that oral administration of the compound to lactating females led to delivery of Example 45 Compound to the brain tissue of weanling pups. […] Finally, it was observed that daily IP administration of Example 45 Compound to weaned pups at 20 mg/kg was sufficient to yield brain levels of Example 45 Compound at or above the level required to enhance adult neurogenesis.
Female mice heterozygous at the NPAS3 locus were mated to heterozygous males. Two weeks post-mating, females were given a daily oral gavage of either 20 mg/kg of Example 45 Compound or vehicle-only formula. Dosing was continued throughout the last trimester of pregnancy, as well as the two week post-natal period of lactation. Following weaning, pups were given a daily IP dose of either 20 mg/kg Example 45 Compound or vehicle control. At about 7 weeks of age, mice were switched to oral gavage delivery of the same dose of Example 45 Compound. When mice were 3 months of age they were sacrificed and brain tissue was dissected and subjected to either Golgi-Cox staining or electrophysiological recording. […] The corresponding electrophysiological deficit in CA1 region of the hippocampus, however, was not affected (FIG. 13B), underscoring the specificity of Example 45 Compound to improving functioning of the dentate gyrus in this animal model.
Recognizing that the reduced thickness of the granular layer of the dentate gyrus in NPAS3-deficient animals could be attributed to elevated levels of apoptosis of newborn hippocampal neural precursor cells, the effect of Example 45 Compound treatment on apoptosis in the hippocampus of NPAS3-deficient animals was examined through immunohistochemical staining of cleaved caspase 3 (CCSP3). […] It is thereby proposed that Example 45 Compound facilitated repair of the granular layer of the dentate gyrus in NPAS3-deficient mice by ameliorating a genotype-specific exacerbation of programmed cell death.

hippocampal neurogenesis = assay: Neurogenic efficacy of orally administered compound, dose response; assay type: in vivo, mouse; conditions: for pro-neurogenic or neuroprotective efficacy, oral: daily oral gavage for 7 days
From the text: FIG. 7: Neurogenic efficacy of orally administered Example 45 Compound was dose-related. […] Results shown are the average obtained from analysis of 5 adult wild type male mice at each dose.
Pharmacokinetic analysis of Example 45 Compound in plasma and whole brain tissue was undertaken after single IV, IP and oral gavage administrations. […] These favorable pharmacological properties facilitated a dose response experiment wherein daily oral administration of Example 45 Compound to adult mice was monitored for both brain levels of the chemical and pro-neurogenic efficacy (FIG. 7).

β-secretase (BACE1) = β-secretase (BACE1) (Homo sapiens, UniProt P56817); conditions: Asso V., et al. (2008) Chem Med Chem 3:1530-1534; cited from earlier work
HeLa cells = assay: Toxicity to HeLa cells; assay type: cell-based
histamine receptor = assay: Histamine receptor binding
G93A-SOD1 mutant mice = assay: Neurological score and weight loss in G93A-SOD1 mice, treatment from day 80; assay type: in vivo, mouse; conditions: daily treatment from day 80
Procedure: Neurological score was performed every day starting with compound treatment at 80 days, and was determined as follows: ‘0’=full extension of hind legs away from lateral midline when the test mouse was suspended by its tail, and could hold this for 2 seconds, suspended 2-3 times; ‘1’=collapse or partial collapse of leg extension towards lateral midline (weakness) or trembling of hind legs during tail suspension; ‘2’=toes curl under at least twice during walking of 12 inches, or any part of foot drags along cage bottom/table; ‘3’=rigid paralysis or minimal joint movement, foot not being used for forward motion; and ‘4’=mouse cannot right itself within 30 seconds from either side. Upon reaching a score of 2, animals were given a fresh Petri dish with wet food in the dish daily. When mice achieved a score of 4 for two consecutive days they were euthanized.
Mice were weighed daily starting on the day of initiation of compound administration in order to assess disease progression and readjust compound dosage. A digital balance with a step of 0.01 g was used, and mice were placed in a small plastic container on the scale when weighed. Weight was taken between 11 am and 1 pm every day.

Chain of β-secretase (BACE1) (P56817 46-501, species assumed): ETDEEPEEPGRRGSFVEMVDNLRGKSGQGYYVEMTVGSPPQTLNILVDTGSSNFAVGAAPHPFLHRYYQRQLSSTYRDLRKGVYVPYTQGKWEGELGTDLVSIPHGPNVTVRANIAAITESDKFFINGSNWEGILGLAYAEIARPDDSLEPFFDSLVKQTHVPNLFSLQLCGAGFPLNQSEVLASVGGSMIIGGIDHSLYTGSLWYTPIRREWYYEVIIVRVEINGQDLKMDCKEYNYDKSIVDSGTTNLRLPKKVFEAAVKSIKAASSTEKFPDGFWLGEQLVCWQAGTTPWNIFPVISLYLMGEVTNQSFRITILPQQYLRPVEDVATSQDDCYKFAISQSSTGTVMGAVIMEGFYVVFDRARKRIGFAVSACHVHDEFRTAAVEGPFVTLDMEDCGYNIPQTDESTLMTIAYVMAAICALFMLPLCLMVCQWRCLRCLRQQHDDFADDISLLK

## OC(CNc1ccccc1)Cn1c2ccc(Br)cc2c2cc(Br)ccc21 (centres unmarked) [Example 45 Compound]
[1]; 20 mg/kg daily oral to pregnant or lactating females, LC/MS
  brain level in embryos and weanling pups: ≥ 1.35 µM
[1]; 20 mg/kg/d from embryonic day 14 until 3 months of age, npas3−/− mice
  thickness of hippocampal subfields: selectively increased the thickness of the dentate gyrus granular cell layer
[1]; 20 mg/kg/d p.o. for 12 days, NPAS3-deficient mice
  cleaved caspase 3 (CCSP3) staining, apoptosis in the dentate gyrus: significantly reduced CCSP3 staining in the dentate gyrus; also recorded: statistically significant reduction in CCSP3 staining; also recorded: inhibited
[1]; extended daily treatment 20 mg/kg/d, npas3−/− mice
  dendritic arborization of dentate gyrus granular neurons (Golgi-Cox): robustly repaired morphological deficits in the dendritic branching; also recorded: enhanced dendritic arborization
[1]; extended treatment, npas3−/− mice
  synaptic responses (fEPSP) in hippocampal slices: normalized synaptic responses in the dentate gyrus but not the CA1 region
[1]; oral 20 mg/kg/d for 12 days
  increase of neurogenesis (BrdU) in npas3−/− mice: roughly 4 fold
[1]; prolonged administration 20 mg/kg, relative to vehicle-only controls
  health of treated animals: did not affect any aspect of the health of mothers, embryos, weanlings or young adult mice
Hippocampal neurogenesis; daily oral administration to adult mice
  oral dose giving maximal pro-neurogenic efficacy: ≥ 5 mg/kg
Hippocampal neurogenesis; doses 5 to 40 mg/kg
  pro-neurogenic or neuroprotective efficacy, oral: roughly double that of vehicle control
Hippocampal neurogenesis; doses below 1.0 mg/kg
  pro-neurogenic or neuroprotective efficacy, oral: no greater than vehicle control

## OC(CNc1cccc2ccccc12)Cn1c2ccc(Cl)cc2c2cc(Cl)ccc21 (centres unmarked) [Example P7C3-S184]
β-secretase (BACE1)
  BACE1 inhibition: reported as a β-secretase (BACE1) inhibitor

## COc1cccc(NCC(F)Cn2c3ccc(Br)cc3c3cc(Br)ccc32)c1 (centres unmarked) [Example P7C3A20, N-(3-(3,6-dibromo-9H-carbazol-9-yl)-2-fluoropropyl)-3-methoxyaniline]
HeLa cells
  toxicity to HeLa cells: no hERG channel binding, histamine receptor binding or toxicity to HeLa cells
Histamine receptor
  histamine receptor binding: no hERG channel binding, histamine receptor binding
G93A-SOD1 mutant mice
  other measures of disease progression (neurological score or weight loss): did not observe any delay in other measures of disease progression
